Earlier results on one compound are cited in publication PMC10721329, “Quisinostat is a brain-penetrant radiosensitizer in glioblastoma” (JCI Insight, 2023).

The structures appear in SMILES notation.

The conditions of this data set: human, in vivo; cited from earlier work.

`Cc1[nH]c2ccccc2c1CCNCc1ccc(/C=C/C(=O)NO)cc1` [panobinostat]: the “hematologic toxicities compared with QST” value is “far more common and severe (grade 3 and 4)”.
